Experiments:
Experiment in all cases: iSPP profiling, P. falciparum lysate
Format in all cases: binding, Plasmodium falciparum
[1] = test system: 40S ribosomal protein S24 (W7KAD9)
Experimental: (§1) P. falciparum NF54 lysates were extracted as described in ^[26^] . The parasite asynchronous culture was extracted once 3-5% parasitemia was reached. Saponin lysis was done as described in 2.2.10. Once the parasite pellet was obtained, 2.5 volumes of ice-cold lysis buffer (50 mM Tris/HCl pH 7.5 (Avantor), 5% glycerol (Sigma-Aldrich), 150 mM NaCl (Carl Roth), 1.5 mM MgCl2 (Sigma-Aldrich), 1 mM DTT (Carl Roth), 0.8% IGEPAL CA-630 (Sigma-Aldrich), 1X Halt Protease and Phosphatase Inhibitor-Cocktails EDTA-free (Thermo Fisher Scientific)) was added to the parasite pellet. The lysate solution was subjected to three cycles of flash freeze-thaw with liquid nitrogen and ddH2O at RT. The lysates were centrifuged at 20,000 g for 20 minutes at 4 °C. The soluble protein fraction (supernatant) was collected and the protein content was quantified using the BCA assay (Pierce™ BCA Protein Assay Kit, Thermo Fisher Scientific). The lysate was stored at -80 °C until further use.
(§2) The P. falciparum lysate was thawed on ice and diluted to 0.8 mg/mL. […] Subsequently, the samples were incubated at room temperature for 30 minutes using a rotating mixer. After distribution into a 96-well plate, the samples were treated with increasing concentrations of A.E.A. (v/v) ranging from 14% to 28% (14, 16, 18, 20, 22, 24, 26, and 28%). Following a 20-minute incubation at 37°C with shaking at 750 rpm, the samples were centrifuged at 4400 g for 35 minutes to remove precipitated proteins. The soluble fractions were then pooled in equal volumes into a single sample using the Bravo Automated Liquid Handling Platform. The pooled samples were subsequently prepared for LC-MS/MS analysis.
(§3) The raw LFQ-DIA intensity values of biological replicates across all conditions were normalized to the median abundance using Excel. The normalized values were then log2 transformed in Perseus (v2.0.10.0).^[58^] Missing values were imputed from a normal distribution (width 0.3, down shift 1.5), and p-values were obtained using a two-sample t-test over replicates with a permutation-based false discovery rate correction (FDR 0.05). Volcano plots were generated in RStudio using the EnhancedVolcano package (v. 1.20.0), ^[59^] plotting proteins by statistical significance (y-axis: –Log10 p-value) versus the magnitude of change (x-axis: log2 fold change of protein intensities for each compound condition relative to the vehicle control). The heatmap was generated in Perseus (v2.0.10.0). Dose-dependent curves were generated using normalized protein intensity values, expressed as a ratio to the vehicle control. Plots were created in GraphPad Prism (v8.3.0) using a nonlinear regression model.

[2] = test system: 40S ribosomal protein S4 (W7JT49)
Experimental: as §1, §2, §3

[3] = test system: 60S ribosomal protein L17 (W7KA36)
Experimental: as §1, §2, §3

[4] = test system: 60S ribosomal protein L18a (W7JPN9)
Experimental: as §1, §2, §3

[5] = test system: 60S ribosomal protein L22 (W7K6D9)
Experimental: as §1, §2, §3

[6] = test system: 60S ribosomal protein L4 (W7KB54)
Experimental: as §1, §2, §3

[7] = test system: AAA family ATPase (W7JWU4)
Experimental: as §1, §2, §3

[8] = test system: ATP-dependent zinc metalloprotease FTSH (W7JKR1)
Experimental: as §1, §2, §3

[9] = test system: DnaJ protein (W7JVI6)
Experimental: as §1, §2, §3

[10] = test system: Eukaryotic translation initiation factor 3 subunit A (W7KD62)
Experimental: as §1, §2, §3

[11] = test system: Phospholipid-transporting ATPase (W7JSF3;W7K4C4)
Experimental: as §1, §2, §3

[12] = test system: Ubiquitin-protein ligase (W7JWT0)
Experimental: as §1, §2, §3

[13] = test system: Uncharacterized protein (W7JXC3)
Experimental: as §1, §2, §3

[14] = test system: Uncharacterized protein (W7KIB1)
Experimental: as §1, §2, §3

[15] = test system: dolichyl-diphosphooligosaccharide--protein glycotransferase (W7K3H0)
Experimental: as §1, §2, §3

CN1CCN(Cc2ccc(O)c(NC(=O)c3cccc(Oc4cc(C(F)(F)F)ccn4)c3)c2)CC1 [Compound 31, N-(2-hydroxy-5-((4-methylpiperazin-1-yl)methyl)phenyl)-3-((4-(trifluoromethyl)pyridin-2-yl)oxy)benzamide]
log2FC ([1]; 10 µM): 0.51
log2FC ([1]; 50 µM): 0.70
log2FC ([1]; 100 µM): 0.57
log2FC ([1]; 10^-2 µM): 0.44
log2FC ([1]; 10^-3 µM): 0.27
log2FC ([2]; 10 µM): 0.53
log2FC ([2]; 50 µM): 0.68
log2FC ([2]; 100 µM): 0.62
log2FC ([2]; 10^-2 µM): 0.39
log2FC ([2]; 10^-3 µM): 0.19
log2FC ([3]; 10 µM): 0.35
log2FC ([3]; 50 µM): 0.49
log2FC ([3]; 100 µM): 0.40
log2FC ([3]; 10^-2 µM): 0.30
log2FC ([3]; 10^-3 µM): 0.17
log2FC ([4]; 10 µM): 0.72
log2FC ([4]; 50 µM): 1.09
log2FC ([4]; 100 µM): 0.81
log2FC ([4]; 10^-2 µM): 0.75
log2FC ([4]; 10^-3 µM): 0.60
log2FC ([5]; 10 µM): 0.72
log2FC ([5]; 50 µM): 0.75
log2FC ([5]; 100 µM): 0.65
log2FC ([5]; 10^-2 µM): 0.61
log2FC ([5]; 10^-3 µM): 0.18
log2FC ([6]; 10 µM): 0.49
log2FC ([6]; 50 µM): 0.63
log2FC ([6]; 100 µM): 0.50
log2FC ([6]; 10^-2 µM): 0.41
log2FC ([6]; 10^-3 µM): 0.21
log2FC ([7]; 10 µM): 0.33
log2FC ([7]; 50 µM): 0.46
log2FC ([7]; 100 µM): 0.35
log2FC ([7]; 10^-2 µM): 0.29
log2FC ([7]; 10^-3 µM): 0.18
log2FC ([8]; 10 µM): 0.49
log2FC ([8]; 50 µM): 0.64
log2FC ([8]; 100 µM): 0.46
log2FC ([8]; 10^-2 µM): 0.46
log2FC ([8]; 10^-3 µM): 0.20
log2FC ([9]; 10 µM): 0.38
log2FC ([9]; 50 µM): 0.51
log2FC ([9]; 100 µM): 0.40
log2FC ([9]; 10^-2 µM): 0.30
log2FC ([9]; 10^-3 µM): 0.12
log2FC ([10]; 10 µM): 0.35
log2FC ([10]; 50 µM): 0.45
log2FC ([10]; 100 µM): 0.31
log2FC ([10]; 10^-2 µM): 0.30
log2FC ([10]; 10^-3 µM): 0.15
log2FC ([11]; 10 µM): 0.33
log2FC ([11]; 50 µM): 0.36
log2FC ([11]; 100 µM): 0.30
log2FC ([11]; 10^-2 µM): 0.36
log2FC ([11]; 10^-3 µM): 0.20
log2FC ([12]; 10 µM): 0.52
log2FC ([12]; 50 µM): 0.87
log2FC ([12]; 100 µM): 0.59
log2FC ([12]; 10^-2 µM): 0.50
log2FC ([12]; 10^-3 µM): 0.25
log2FC ([13]; 10 µM): 0.50
log2FC ([13]; 50 µM): 0.70
log2FC ([13]; 100 µM): 0.40
log2FC ([13]; 10^-2 µM): 0.36
log2FC ([13]; 10^-3 µM): 0.02
log2FC ([14]; 10 µM): 1.08
log2FC ([14]; 50 µM): 1.03
log2FC ([14]; 100 µM): 0.88
log2FC ([14]; 10^-2 µM): 1.16
log2FC ([14]; 10^-3 µM): 0.39
log2FC ([15]; 10 µM): 0.53
log2FC ([15]; 50 µM): 0.72
log2FC ([15]; 100 µM): 0.44
log2FC ([15]; 10^-2 µM): 0.59
